Like-named read-outs stand apart in the source and are kept apart here.
What was measured:
[1] = in vivo
[2] = for CL, Predicted Typical Value / Volume of Distribution, Predicted Typical Value / Weight-Adjusted CL, Predicted Typical Value / Weight-Adjusted V, Predicted Typical Value: model-predicted
clinical [3] = details: human, in vivo
[4] = tested on: neonates ≥28 to ≤44 weeks gestational age
clinical [5] = details: human, plasma, intravenous
clinical [6] = details: human, in vivo; remark: listed apart in the source
[7] = human, in vivo
[8] = tested on: pediatric subjects 12 to <24 months; details: in vivo
clinical [9] = details: human, in vivo; remark: listed apart in the source
[10] = cited from earlier work
[11] = cited from earlier work; remark: listed apart in the source
[12] = final population PK model, Examples 5, 3, 1 and 7
[13] = age Group I, dose level 2 (Dex 0.1), N = 6
[14] = Su et al. model, subject 7.7 months, 7 kg, total bypass time 57 minutes
[15] = noncompartmental analysis of the adult long-term use data
[16] = population PK of 4 pooled pediatric intensive care studies (1 week to 14 years)
[17] = typical subject, adult population PK analysis of long-term (>24 h) use

For `Cc1cccc([C@H](C)c2cnc[nH]2)c1C` [dexmedetomidine], the “power-model slope (95% confidence interval) for AUC0-inf” value ([1]; human) was 1.263 (0.820, 1.706), the “power-model slope (95% confidence interval) for Cmax” value ([1]; human) was 0.898 (0.652, 1.143) and the “pharmacokinetic linearity / dose proportionality” value [1] was “linearity and dose proportionality”. For the same compound, the “Magnitude of Interindividual Variability in Vc, final estimate” value ([2]; final population PK model) was 53.76 % CV, the “Exponent for power function effect of age on Q (population mean)” value [2, 12] was −0.342 and the “Exponent for power function effect of age on Vp (population mean)” value [2, 12] was −0.280. The “Inter-compartmental CL (Q) (population mean)” value [2, 12] was 63.5 L/h, the “Vc, volume of the central compartment (population mean)” value [2, 12] was 8.49 L and the “Vp, volume of the peripheral compartment (population mean)” value [2, 12] was 14.7 L. The “Magnitude of Interindividual Variability in CL, final estimate” value ([2]; final population PK model, cell spans CL rows) was 37.01 % CV, the “Magnitude of Interindividual Variability in Q, final estimate” value ([2]; final population PK model, cell spans Q rows) was 161.25 % CV and the “Magnitude of Interindividual Variability in Vp, final estimate” value ([2]; final population PK model, cell spans Vp rows) was 51.19 % CV. The “CL, Predicted Typical Value” ([2]; 1 month-<6 months) was 7.51 L/h, the “Volume of Distribution, Predicted Typical Value” (“Volume … Predicted Typical Value” for short) ([2]; 1 month-<6 months) was 18.75 L and the “Weight-Adjusted CL, Predicted Typical Value” ([2]; 1 month-<6 months) was 20.9 mL/min/kg. For the same compound, the “Weight-Adjusted V, Predicted Typical Value” ([2]; 1 month-<6 months) was 3.133 L/kg, the “CL, Predicted Typical Value” ([2]; 2 y-<6 y) was 14.01 L/h and the “Volume … Predicted Typical Value” ([2]; 2 y-<6 y) was 28.09 L. The “Weight-Adjusted CL, Predicted Typical Value” ([2]; 2 y-<6 y) was 16.98 mL/min/kg, the “Weight-Adjusted V, Predicted Typical Value” ([2]; 2 y-<6 y) was 2.043 L/kg and the “CL, Predicted Typical Value” ([2]; 6 months-<12 months) was 8.69 L/h. The “Volume … Predicted Typical Value” ([2]; 6 months-<12 months) was 19.95 L, the “Weight-Adjusted CL, Predicted Typical Value” ([2]; 6 months-<12 months) was 19.92 mL/min/kg and the “Weight-Adjusted V, Predicted Typical Value” ([2]; 6 months-<12 months) was 2.742 L/kg. For the same compound, the “CL, Predicted Typical Value” ([2]; 6 y-<17 y) was 25.27 L/h, the “Volume … Predicted Typical Value” ([2]; 6 y-<17 y) was 52.97 L and the “Weight-Adjusted CL, Predicted Typical Value” ([2]; 6 y-<17 y) was 14 mL/min/kg. For the same compound, the “Weight-Adjusted V, Predicted Typical Value” ([2]; 6 y-<17 y) was 1.754 L/kg, the “CL, Predicted Typical Value” ([2]; 12 months-<24 months) was 11.12 L/h and the “Volume … Predicted Typical Value” ([2]; 12 months-<24 months) was 23.85 L. For the same compound, the “Weight-Adjusted CL, Predicted Typical Value” ([2]; 12 months-<24 months) was 18.35 mL/min/kg, the “Weight-Adjusted V, Predicted Typical Value” ([2]; 12 months-<24 months) was 2.361 L/kg and the “CL, Predicted Typical Value” ([2]; 28 weeks GA-<1 month) was 2.69 L/h. The “Volume … Predicted Typical Value” ([2]; 28 weeks GA-<1 month) was 16.21 L, the “Weight-Adjusted CL, Predicted Typical Value” ([2]; 28 weeks GA-<1 month) was 15.6 mL/min/kg and the “Weight-Adjusted V, Predicted Typical Value” ([2]; 28 weeks GA-<1 month) was 5.618 L/kg. It also gave a clearance (clinical [3]; CL, Population Mean) of 308 mL/min, a clearance (clinical [3]; CL, model value) of 142 mL/min and a clearance (clinical [3]; Weight-Adjusted CL, Geo. Mean of individual Bayesian estimates) of 16.5 mL/min/kg. For the same compound, the clearance (clinical [3]; Weight-Adjusted CL, Geometric Mean) was 16.5 mL/min/kg, the half-life (clinical [3]; terminal elimination (β) half-life) was 1.6 h and the “TEAE: Anger, subjects” value [4, 13] was 1 (16.7%). The “TEAE: Blood bilirubin unconjugated increased, subjects” value [4, 13] was 1 (16.7%), the “TEAE: Bradycardia, subjects” value [4, 13] was 1 (16.7%) and the “TEAE: Cardiac disorders, subjects” value [4, 13] was 1 (16.7%). For the same compound, the “TEAE: Cardio-respiratory arrest, subjects” value [4, 13] was 1 (16.7%), the “TEAE: General disorders and administration site conditions, subjects” value [4, 13] was 2 (33.3%) and the “TEAE: Haematuria, subjects” value [4, 13] was 1 (16.7%). The “TEAE: Hepatobiliary disorders, subjects” value [4, 13] was 1 (16.7%), the “TEAE: Hyperbilirubinaemia, subjects” value [4, 13] was 1 (16.7%) and the “TEAE: Hyperglycaemia, subjects” value [4, 13] was 1 (16.7%). The “TEAE: Hypocalcaemia, subjects” value [4, 13] was 1 (16.7%), the “TEAE: Hypoproteinaemia, subjects” value [4, 13] was 1 (16.7%) and the “TEAE: Infections and infestations, subjects” value [4, 13] was 1 (16.7%). The “TEAE: Infusion site extravasation, subjects” value [4, 13] was 1 (16.7%), the “TEAE: Investigations, subjects” value [4, 13] was 2 (33.3%) and the “TEAE: Oedema, subjects” value [4, 13] was 1 (16.7%). For the same compound, the “TEAE: Oxygen saturation decreased, subjects” value [4, 13] was 1 (16.7%), the “TEAE: Psychiatric disorders, subjects” value [4, 13] was 1 (16.7%) and the “TEAE: Renal and urinary disorders, subjects” value [4, 13] was 1 (16.7%). The “TEAE: Sepsis, subjects” value [4, 13] was 1 (16.7%), the “TEAE: Metabolism and nutrition disorders, subjects” value ([4]; human, in vivo) was 3 (50.0%) and the “TEAE: Number of Events” value ([4]; human, in vivo) was 18. The “patients with adverse events” value ([4]; human, in vivo) was 67%, the “subjects with treatment-emergent adverse effects assessed as related to treatment” value ([4]; human, in vivo) was 2 subjects and the safety and tolerability ([4]; in vivo) was “safe and well tolerated”. For the same compound, the “severe treatment-emergent adverse effects” value ([4]; in vivo) was “no severe”, the clearance (clinical [5]; CL, Geo. Mean of individual Bayesian estimates, 1 month-<6 months (n = 14)) was 116 mL/min and the clearance (clinical [5]; CL, Geo. Mean of individual Bayesian estimates, 2 y-<6 y (n = 26)) was 265 mL/min. It also gave a clearance (clinical [5]; CL, Geo. Mean of individual Bayesian estimates, 6 months-<12 months (n = 16)) of 136 mL/min, a clearance (clinical [5]; CL, Geo. Mean of individual Bayesian estimates, 6 y-<17 y (n = 29)) of 408 mL/min and a clearance (clinical [5]; CL, Geo. Mean of individual Bayesian estimates, 12 months-<24 months (n = 13)) of 179 mL/min. It also gave a clearance (clinical [5]; CL, Geo. Mean of individual Bayesian estimates, 28 weeks GA-<1 month (n = 28)) of 38 mL/min, a clearance (clinical [5]; CL, elimination clearance (population mean), final population PK model, Examples 5, 3, 1 and 7) of 178 mL/min and a Vd (clinical [5]; Volume of Distribution, Geo. Mean of individual Bayesian estimates, 1 month-<6 months (n = 14)) of 17.3 L. For the same compound, the Vd (clinical [5]; Volume of Distribution, Geo. Mean of individual Bayesian estimates, 2 y-<6 y (n = 26)) was 33.7 L, the Vd (clinical [5]; Volume of Distribution, Geo. Mean of individual Bayesian estimates, 6 months-<12 months (n = 16)) was 21.2 L and the Vd (clinical [5]; Volume of Distribution, Geo. Mean of individual Bayesian estimates, 6 y-<17 y (n = 29)) was 51.6 L. The Vd (clinical [5]; Volume of Distribution, Geo. Mean of individual Bayesian estimates, 12 months-<24 months (n = 13)) was 23.9 L, the Vd (clinical [5]; Volume of Distribution, Geo. Mean of individual Bayesian estimates, 28 weeks GA-<1 month (n = 28)) was 14.1 L and the clearance (clinical [5]; Weight-Adjusted CL, Geometric Mean (individual Bayesian estimates), Including Additional 11 Subjects, 1 month-<6 months (n = 14)) was 20.2 mL/min/kg. It also gave a clearance (clinical [5]; Weight-Adjusted CL, Geometric Mean (individual Bayesian estimates), Including Additional 11 Subjects, 2 y-<6 y (n = 26)) of 18.5 mL/min/kg, a clearance (clinical [5]; Weight-Adjusted CL, Geometric Mean (individual Bayesian estimates), Including Additional 11 Subjects, 6 months-<12 months (n = 16)) of 18.5 mL/min/kg and a clearance (clinical [5]; Weight-Adjusted CL, Geometric Mean (individual Bayesian estimates), Including Additional 11 Subjects, 6 y-<17 y (n = 29)) of 13.3 mL/min/kg. It also gave a clearance (clinical [5]; Weight-Adjusted CL, Geometric Mean (individual Bayesian estimates), Including Additional 11 Subjects, 12 months-<24 months (n = 13)) of 17.7 mL/min/kg, a clearance (clinical [5]; Weight-Adjusted CL, Geometric Mean (individual Bayesian estimates), Including Additional 11 Subjects, 28 weeks GA-<1 month (n = 28)) of 15.5 mL/min/kg and a Vd (clinical [5]; Weight-Adjusted Vd, Geometric Mean (individual Bayesian estimates), Including Additional 11 Subjects, 1 month-<6 months (n = 14)) of 3.02 L/kg. The Vd (clinical [5]; Weight-Adjusted Vd, Geometric Mean (individual Bayesian estimates), Including Additional 11 Subjects, 2 y-<6 y (n = 26)) was 2.35 L/kg, the Vd (clinical [5]; Weight-Adjusted Vd, Geometric Mean (individual Bayesian estimates), Including Additional 11 Subjects, 6 months-<12 months (n = 16)) was 2.89 L/kg and the Vd (clinical [5]; Weight-Adjusted Vd, Geometric Mean (individual Bayesian estimates), Including Additional 11 Subjects, 6 y-<17 y (n = 29)) was 1.68 L/kg. For the same compound, the Vd (clinical [5]; Weight-Adjusted Vd, Geometric Mean (individual Bayesian estimates), Including Additional 11 Subjects, 12 months-<24 months (n = 13)) was 2.35 L/kg, the Vd (clinical [5]; Weight-Adjusted Vd, Geometric Mean (individual Bayesian estimates), Including Additional 11 Subjects, 28 weeks GA-<1 month (n = 28)) was 5.74 L/kg and the Tmax (clinical [6]; after the start of the maintenance infusion) was 0.68 h. It also gave a Tmax (clinical [6]; before the end of the loading dose) of roughly 0.08 h, a clearance (clinical [6]; clearance) of roughly 95 mL/min and a half-life (clinical [6]; half-life) of roughly 2 h. For the same compound, the half-life (clinical [6]; t1/2, Mean) was 1.96 h, the clearance (clinical [6]; weight adjusted CL) was roughly 10 mL/min/kg and the Vd (clinical [6]; weight adjusted Vd) was roughly 1.6 L/kg. For the same compound, the “CL, predicted” value [7] was 47.8 L/h, the “Exponent of power relationship between Q and age, Population Mean” value [7] was −0.509 and the “IIV in Q” value [7] was 117 % CV. The “Proportional shift in allometric exponent for Vc for neonates, Population Mean” value [7] was 0.513, the “Q, model value” [7] was 68.21 L/h and the “Slope of linear age effect on Vp, Population Mean” value [7] was −1.43 L/y. For the same compound, the “Vc, model value” [7] was 6.22 L, the “Vp, model value” [7] was 13.21 L and the “interindividual variability in CL, Vc, and Vp” value [7] was 35-55 % CV. For the same compound, the “terminal elimination (β) half-life” value [7] was 1.8 h, the “unexplained interindividual variability (IIV) in Q” value [7] was 163 % CV and the “volume of distribution, predicted” value [7] was 114.6 L. For the same compound, the “subjects with treatment-emergent adverse events” value ([8]; human) was 20.0%, the safety and tolerability [8] was “safe and well tolerated” and the clearance (clinical [9]; 0.05 ug/kg, CLw (clearance)) was 6.83 mL/min/kg. It also gave an AUC(0-t) (clinical [9]; AUC (0-Last)) of 0.708 ng·h/mL, a clearance (clinical [9]; CLw (weight adjusted clearance)) of 4.83 mL/min/kg and a Vd (clinical [9]; Vss) of 6.25 L. The half-life (clinical [9]; elimination t1/2) was 4.77 h, the half-life (clinical [9]; t1/2) was 8.32 h and the CL [10, 14] was 7.26 L/h. The Q [10, 14] was 24.1 L/h, the Vc [10, 14] was 8.4 L and the Vp [10, 14] was 10.2 L. For the same compound, the CL [10, 15] was 39.4 L/h, the volume of distribution [10, 15] was 152 L and the “CL standardized to a 70-kg adult” value [10, 16] was 42.1 L/h. The “volume of distribution standardized to a 70-kg adult” value [10, 16] was 125.3 L, the volume of distribution ([10]; product label for Precedex) was 118 L and the CL ([10]; product label for Precedex, mean body weight 72 kg) was 39 L/h. For the same compound, the CL [10, 17] was 35.8 L/h, the volume of distribution [10, 17] was 112.7 L and the pKa [11] was 7. For the same compound, the solubility in water [11] was “freely soluble in water” and the “pH of the isotonic solution” value ([11]; study drug as supplied) was 4.5.

From patent US20130096170A1 (priority 2011, published 2013)
